Columns and labels:
Assay type in all cases: in vivo
Sorghum halepense = assay: Outdoor post-emergence herbicidal trial, SORHA; conditions: Example B.VII, outdoors
Description: (§1) Outdoors, crop plants were grown on plots of a size of from 5 to 10 m^2 on various soils and under various climatic conditions, and the natural presence of harmful plants and/or their seeds in the soil was utilized for the experiments. The treatment with the compositions according to the invention or the herbicides A and B applied individually was carried out after emergence of the harmful and the crop plants, in general at the 2- to 4-leaf stage. The active compounds or active compound combinations, formulated as WG, WP or EC, were applied by the post-emergence method. After 2 to 8 weeks, visual evaluation was carried out in comparison with an untreated comparative group. […] In addition, the herbicidal activities of the compositions according to the invention exceed the expected values according to Colby.
(§2) If the observed activity values of the mixtures already exceed the formal sum of the values for the trials with individual applications, they also exceed the expected value according to Colby which is calculated using the following formula (cf. S. R. Colby; in Weeds 15 (1967) pp. 20 to 22): E=A+B−(A×B/100)
(§3) The figures denote: • A, B=Activity of components A and B in percent, at a dosage of a and b gram of ai/ha, respectively. • E=Expected value in % at a dosage of a+b gram of ai/ha.

Portulaca oleracea = assay: Outdoor post-emergence herbicidal trial, POROL; conditions: Example B.VI, outdoors
Description: as §1, §2, §3

Amaranthus retroflexus = assay: Outdoor post-emergence herbicidal trial, AMARE; conditions: Example B.VI, outdoors
Description: as §1, §2, §3

Digitaria sanguinalis = assay: Outdoor post-emergence herbicidal trial, DIGSA; conditions: Example B.VII, outdoors
Description: as §1, §2, §3

Setaria faberi = assay: Outdoor post-emergence herbicidal trial, SETFA; conditions: Example B.II, outdoors
Description: as §1, §2, §3

Brassica napus = assay: Outdoor post-emergence herbicidal trial, BRAPP; conditions: Example B.II, outdoors
Description: as §1, §2, §3

Matricaria spec = assay: Outdoor post-emergence herbicidal trial, MATCH; conditions: Example B.V, outdoors
Description: as §1, §2, §3

Galium aparine = assay: Outdoor post-emergence herbicidal trial, GALAP; conditions: Example B.I, outdoors
Description: as §1, §2, §3

Polygonum convolvulus = assay: Outdoor post-emergence herbicidal trial, POLCO; conditions: Example B.V, outdoors
Description: as §1, §2, §3

Echinocloa crus galli = assay: Outdoor post-emergence herbicidal trial, ECHCG; conditions: outdoors
Description: as §1, §2, §3

Papaver rhoeas = assay: Outdoor post-emergence herbicidal trial, PAPRH; conditions: Example B.I, outdoors
Description: as §1, §2, §3

Abutilon theophrasti = assay: Outdoor post-emergence herbicidal trial, ABUTH; conditions: outdoors
Description: as §1, §2, §3

[1] = Example B.III, B2.2 840 g ai/ha

## COc1cc(OC)nc(NC(=O)NS(=O)(=O)c2ncccc2C(=O)N(C)C)n1 [Component B1.9, nicosulfuron]
Sorghum halepense; B1.9 40 g ai/ha
  found (herbicidal activity): 62%
Portulaca oleracea; B1.9 40 g ai/ha
  found (herbicidal activity): 0%
Amaranthus retroflexus; B1.9 40 g ai/ha
  found (herbicidal activity): 90%
Digitaria sanguinalis; B1.9 40 g ai/ha
  found (herbicidal activity): 50%

## CS(=O)(=O)c1ccc(C(=O)C2C(=O)CCCC2=O)c(Cl)c1COCC(F)(F)F [Component A, 2-[2-chloro-3-(2,2,2-trifluoroethoxymethyl)-4-methylsulfonylbenzoyl]cyclohexane-1,3-dione]
Setaria faberi; A 100 g ai/ha
  found (herbicidal activity): 65%
Brassica napus; A 100 g ai/ha
  found (herbicidal activity): 68%
Matricaria spec; A 38 g ai/ha
  found (herbicidal activity): 45%
Galium aparine; A 75 g ai/ha
  found (herbicidal activity): 50%
Polygonum convolvulus; A 38 g ai/ha
  found (herbicidal activity): 50%
Sorghum halepense; A 75 g ai/ha
  found (herbicidal activity): 50%
Echinocloa crus galli; Example B.III, A 100 g ai/ha
  found (herbicidal activity): 98%
Echinocloa crus galli; Example B.IV, A 100 g ai/ha
  found (herbicidal activity): 98%
Portulaca oleracea; A 75 g ai/ha
  found (herbicidal activity): 50%
Amaranthus retroflexus; A 75 g ai/ha
  found (herbicidal activity): 90%
Papaver rhoeas; A 75 g ai/ha
  found (herbicidal activity): 0%
Digitaria sanguinalis; A 75 g ai/ha
  found (herbicidal activity): 46%
Abutilon theophrasti; Example B.III, A 100 g ai/ha
  found (herbicidal activity): 75%
Abutilon theophrasti; Example B.IV, A 100 g ai/ha
  found (herbicidal activity): 75%

## N#Cc1cc(Br)c(O)c(Br)c1 [Component B2.3, bromoxynil]
Matricaria spec; B2.3 100 g ai/ha
  found (herbicidal activity): 55%
Polygonum convolvulus; B2.3 100 g ai/ha
  found (herbicidal activity): 45%

## CCNc1nc(Cl)nc(NC(C)C)n1 [Component B2.2, atrazine]
Setaria faberi; B2.2 840 g ai/ha
  found (herbicidal activity): 5%
Brassica napus; B2.2 840 g ai/ha
  found (herbicidal activity): 0%
Galium aparine; B2.2 200 g ai/ha
  found (herbicidal activity): 30%
Echinocloa crus galli; [1]
  found (herbicidal activity): 0%
Echinocloa crus galli; Example B.IV, B2.2 840 g ai/ha
  found (herbicidal activity): 0%
Papaver rhoeas; B2.2 200 g ai/ha
  found (herbicidal activity): 60%
Abutilon theophrasti; [1]
  found (herbicidal activity): 20%
Abutilon theophrasti; Example B.IV, B2.2 840 g ai/ha
  found (herbicidal activity): 20%
